Patent US7109193B2, “Tricyclic diazepines tocolytic oxytocin receptor antagonists” (Wyeth, priority 2001, dated 2006)

Target: T1, human vasopressin V2 receptor subtype (Homo sapiens, UniProt P30518)
T1 construct: host or cells: CHO cells (pZeoSV vector)
Test: Vasopressin binding in Chinese Hamster Ovary cell membranes expressing human vasopressin V2 subtype receptors
Conditions: 100 nM, CHO cell membranes, [3H]arginine vasopressin, values without parentheses
Method in brief: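 Radioligand displacement on membranes from CHO cells stably expressing human V2 receptor, 25 to 50 μg protein/well, in 50 mM Tris-HCl pH 7.4 with MgCl2, BSA and protease inhibitors. [^3H]arginine vasopressin (8 nM working solution) incubated 60 min at room temperature; bound label measured by filtration and scintillation counting.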

T1 sequence (P30518 whole entry): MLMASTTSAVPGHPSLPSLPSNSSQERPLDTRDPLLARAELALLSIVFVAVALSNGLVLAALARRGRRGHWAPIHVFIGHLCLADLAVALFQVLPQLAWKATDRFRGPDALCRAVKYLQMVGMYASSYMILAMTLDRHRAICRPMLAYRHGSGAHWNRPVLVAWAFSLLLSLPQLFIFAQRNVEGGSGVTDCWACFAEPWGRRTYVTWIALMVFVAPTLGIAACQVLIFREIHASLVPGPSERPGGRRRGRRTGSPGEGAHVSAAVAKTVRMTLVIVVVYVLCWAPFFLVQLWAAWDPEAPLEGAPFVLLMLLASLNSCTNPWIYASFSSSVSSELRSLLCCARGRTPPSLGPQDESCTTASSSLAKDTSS

Structure (SMILES)	inhibition at 0.1 µM	V2 % inhibition @ 100 nM (0.1 µM)
COc1ccccc1-c1ccc(C(=O)N2Cc3ccc(C(=O)N[C@@H]4CN5CCC4CC5)n3Cc3ccccc32)cc1OC [Example 300, N-[(3S)-1-Azabicyclo[2.2.2]oct-3-yl]-10-[(2,2′-dimethoxy[1,1′-biphenyl]-4-yl)carbonyl]-10,11-dihydro-5H-pyrrolo[2,1-c][1,4]benzodiazepine-3-carboxamide]	19%	
COc1ccccc1-c1ccc(C(=O)N2Cc3ccc(C(=O)N[C@@H]4CN5CCC4CC5)n3Cc3ccccc32)cc1C [Example 295, N-[(3S)-1-Azabicyclo[2.2.2]oct-3-yl]-10-[(2′-methoxy-2-methyl[1,1′-biphenyl]-4-yl)carbonyl]-10,11-dihydro-5H-pyrrolo[2,1-c][1,4]benzodiazepine-3-carboxamide]	22%	
COc1cc(C(=O)N2Cc3ccc(C(=O)NCCC4CCCN4C)n3Cc3ccccc32)ccc1-n1c(C)ccc1C (centres unmarked) [Example 315, 10-[4-(2,5-Dimethyl-1H-pyrrol-1-yl)-3-methoxybenzoyl]-N-[2-(1-methyl-2-pyrrolidinyl)ethyl]-10,11-dihydro-5H-pyrrolo[2,1-c][1,4]benzodiazepine-3-carboxamide]	-4%	
C=CCN1CCN(C(=O)c2ccc3n2Cc2ccccc2N(C(=O)c2ccc(-n4c(C)ccc4C)c(OC)c2)C3)CC1 [Example 318, (4-Allyl-1-piperazinyl){10-[4-(2,5-dimethyl-1H-pyrrol-1-yl)-3-methoxybenzoyl]-10,11-dihydro-5H-pyrrolo[2,1-c][1,4]benzodiazepin-3-yl}methanone]	17%	
COc1cc(C(=O)N2Cc3ccc(C(=O)N4CCN(C)CC4)n3Cc3ccccc32)ccc1-n1c(C)ccc1C [Example 306, {10-[4-(2,5-Dimethyl-1H-pyrrol-1-yl)-3-methoxybenzoyl]-10,11-dihydro-5H-pyrrolo[2,1-c][1,4]benzodiazepin-3-yl}(4-methyl-1-piperazinyl)methanone]	0%	
CC(C)N1CCN(C(=O)c2ccc3n2Cc2ccccc2N(C(=O)c2ccc(-c4cccc5ccccc45)cc2Cl)C3)CC1 [Example 243, {10-[2-Chloro-4-(1-naphthyl)benzoyl]-10,11-dihydro-5H-pyrrolo[2,1-c][1,4]benzodiazepin-3-yl}(4-isopropyl-1-piperazinyl)methanone]	21%	
COc1cc(-c2ccccc2C)c(Cl)cc1C(=O)N1Cc2ccc(C(=O)N[C@@H](CCCCNC(=O)OC(C)(C)C)C(N)=O)n2Cc2ccccc21 [Example 304, tert-Butyl (5S)-6-amino-5-[({10-[(6-chloro-3-methoxy-2′-methyl[1,1′-biphenyl]-4-yl)carbonyl]-10,11-dihydro-5H-pyrrolo[2,1-c][1,4]benzodiazepin-3-yl}carbonyl)amino]-6-oxohexylcarbamate]	19%	
COc1ccccc1-c1ccc(C(=O)N2Cc3ccc(C(=O)NCCCN(C)C)n3Cc3ccccc32)cc1C [Example 72, N-[3-(Dimethylamino)propyl]-10-[(2′-methoxy-2-methyl[1,1′-biphenyl]-4-yl)carbonyl]-10,11-dihydro-5H-pyrrolo[2,1-c][1,4]benzodiazepine-3-carboxamide]	26%	
Cc1ccccc1-c1ccc(C(=O)N2Cc3ccc(C(=O)N4CCCN(C)CC4)n3Cc3ccccc32)cc1C [Example 63, {10-[(2,2′-Dimethyl[1,1′-biphenyl]-4-yl)carbonyl]-10,11-dihydro-5H-pyrrolo[2,1-c][1,4]benzodiazepin-3-yl}(4-methyl-1,4-diazepan-1-yl)methanone]	9%	
Cc1cc(C(=O)N2Cc3ccc(C(=O)n4ccnc4)n3Cc3ccccc32)ccc1-c1ccccc1C(F)(F)F [Example 294, 1H-Imidazol-1-yl(10-{[2-methyl-2′-(trifluoromethyl)[1,1′-biphenyl]-4-yl]carbonyl}-10,11-dihydro-5H-pyrrolo[2,1-c][1,4]benzodiazepin-3-yl)methanone]	-2%	
COc1cc(C(=O)N2Cc3ccc(C(=O)NCCN4CCCCC4)n3Cc3ccccc32)ccc1-n1c(C)ccc1C [Example 314, 10-[4-(2,5-Dimethyl-1H-pyrrol-1-yl)-3-methoxybenzoyl]-N-[2-(1-piperidinyl)ethyl]-10,11-dihydro-5H-pyrrolo[2,1-c][1,4]benzodiazepine-3-carboxamide]	7%	
COc1ccccc1-c1ccc(C(=O)N2Cc3ccc(C(=O)N[C@@H](Cc4c[nH]cn4)C(N)=O)n3Cc3ccccc32)cc1 [Example 285, N-[(1S)-2-Amino-1-(1H-imidazol-4-ylmethyl)-2-oxoethyl]-10-[(2′-methoxy[1,1′-biphenyl]-4-yl)carbonyl]-10,11-dihydro-5H-pyrrolo[2,1-c][1,4]benzodiazepine-3-carboxamide]	32%	
COc1cccc(-c2ccc(C(=O)N3Cc4ccc(C(=O)n5ccnc5)n4Cc4ccccc43)cc2C)c1 [Example 289, 1H-Imidazol-1-yl-{10-[(3′-methoxy-2-methyl[1,1′-biphenyl]-4-yl)carbonyl]-10,11-dihydro-5H-pyrrolo[2,1-c][1,4]benzodiazepin-3-yl}methanone]	7%	
COc1cccc(-c2cc(OC)c(C(=O)N3Cc4ccc(C(=O)N5CCCN(C)CC5)n4Cc4ccccc43)cc2Cl)c1 [Example 67, {10-[(6-Chloro-3,3′-dimethoxy[1,1′-biphenyl]-4-yl)carbonyl]-10,11-dihydro-5H-pyrrolo[2,1-c][1,4]benzodiazepin-3-yl}(4-methyl-1,4-diazepan-1-yl)methanone]	4%	

Further lines, results first:

inhibition at 0.1 µM	V2 % inhibition @ 100 nM (0.1 µM)	Structure (SMILES)
14%		COc1ccccc1-c1ccc(C(=O)N2Cc3ccc(C(=O)N[C@@H](CCCCNC(=O)OC(C)(C)C)C(N)=O)n3Cc3ccccc32)cc1OC [Example 303, tert-Butyl (5S)-6-amino-5-[({10-[(2,2′-dimethoxy[1,1′-biphenyl]-4-yl)carbonyl]-10,11-dihydro-5H-pyrrolo[2,1-c][1,4]benzodiazepin-3-yl}carbonyl)amino]-6-oxohexylcarbamate]
24%		O=C(c1ccc(-c2ccccc2)nc1)N1Cc2cccn2Cc2ccccc21 [Example 29, (6-Phenyl-pyridin-3-yl)-[10,11-dihydro-5H-pyrrolo[2,1-c][1,4]benzodiazepin-10-yl]methanone]
21%		Cc1ccccc1-c1ccc(C(=O)N2Cc3ccc(C(=O)N4CCN(CCCN(C)C)CC4)n3Cc3ccccc32)cc1C [Example 247, {4-[3-(Dimethylamino)propyl]-1-piperazinyl}{10-[(2,2′-dimethyl[1,1′-biphenyl]-4-yl)carbonyl]-10,11-dihydro-5H-pyrrolo[2,1-c][1,4]benzodiazepin-3-yl}methanone]
7%		COc1cccc(-c2ccc(C(=O)N3Cc4ccc(C(=O)N5CCN(CCCN(C)C)CC5)n4Cc4ccccc43)cc2C)c1 [Example 248, {4-[3-(Dimethylamino)propyl]-1-piperazinyl}{10-[(3′-methoxy-2-methyl[1,1′-biphenyl]-4-yl)carbonyl]-10,11-dihydro-5H-pyrrolo[2,1-c][1,4]benzodiazepin-3-yl}methanone]
40%		CN(C)CCCN1CCN(C(=O)c2ccc3n2Cc2ccccc2N(C(=O)c2ccc(-c4cccc5ccccc45)cc2Cl)C3)CC1 [Example 256, {10-[2-Chloro-4-(1-naphthyl)benzoyl]-10,11-dihydro-5H-pyrrolo[2,1-c][1,4]benzodiazepin-3-yl}{4-[3-(dimethylamino)propyl]-1-piperazinyl}methanone]
5%		Cc1cc(C(=O)N2Cc3cccn3Cc3ncccc32)ccc1-c1ccccc1C(F)(F)F [Example 323F, (2-Methyl-2′-trifluoromethyl-[1,1′-biphenyl]-4-yl)-(4H,10H-3a,5,9-triaza-benzo[f]azulen-9-yl)-methanone]
3%		COc1ccccc1-c1ccc(C(=O)N2Cc3ccc(C(=O)n4ccnc4)n3Cc3ccccc32)cc1OC [Example 293, {10-[(2,2′-Dimethoxy[1,1′-biphenyl]-4-yl)carbonyl]-10,11-dihydro-5H-pyrrolo[2,1-c][1,4]benzodiazepin-3-yl}(1H-imidazol-1-yl)methanone]
21%		COc1cc(C(=O)N2Cc3ccc(C(=O)N4CCN(CCCN(C)C)CC4)n3Cc3ccccc32)ccc1-n1c(C)ccc1C [Example 320, {4-[3-(Dimethylamino)propyl]-1-piperazinyl}{10-[4-(2,5-dimethyl-1H-pyrrol-1-yl)-3-methoxybenzoyl]-10,11-dihydro-5H-pyrrolo[2,1-c][1,4]benzodiazepin-3-yl}methanone]
11%		COc1cccc(-c2ccc(C(=O)N3Cc4ccc(C(=O)N5CCN(C)CC5)n4Cc4ccccc43)cc2OC)c1 [Example 57, {10-[(2,3′-Dimethoxy[1,1′-biphenyl]-4-yl)carbonyl]-10,11-dihydro-5H-pyrrolo[2,1-c][1,4]benzodiazepin-3-yl}(4-methyl-1-piperazinyl)methanone]
	16%	Cc1cc(C(=O)N2Cc3ccc(C(=O)N4CCN(CCCN(C)C)CC4)n3Cc3ccccc32)ccc1-c1ccccc1C(F)(F)F [Example 257, {10-[(2-Methyl-2′-trifluoromethyl-[1,1′-biphenyl]-4-yl)carbonyl]-10,11-dihydro-5H-pyrrolo[2,1-c][1,4]benzodiazepin-3-yl}{4-[3-(dimethylamino)propyl]-1-piperazinyl}-methanone]
23%		COc1cc(C(=O)N2Cc3ccc(C(=O)N4CCN(C)CC4)n3Cc3ccccc32)ccc1-c1ccccc1C [Example 53, {10-[(2-Methoxy-2′-methyl[1,1′-biphenyl]-4-yl)carbonyl]-10,11-dihydro-5H-pyrrolo[2,1-c][1,4]benzodiazepin-3-yl}(4-methyl-1-piperazinyl)methanone]
31%		Cc1cc(C(=O)N2Cc3cccn3Cc3ccccc32)ccc1-c1ccncc1 [Example 31, [3-Methyl-4-(4-pyridinyl)phenyl]-[10,11-dihydro-5H-pyrrolo[2,1-c][1,4]benzodiazepin-10-yl]methanone]
